Patent US20230013669A1, “Antibacterial Treatment Using a Cannabinoid and an Active Agent” (priority 2019, published 2023)
Values joined by “and” are separate entries in the source; they are usually repeats but may differ in a detail not shown here. Equal values may be shown once. Read-outs that look alike come from different tables or passages of the source.

Tests used:
[1] = test system: Pseudomonas aeruginosa ATCC 27853 (GN_042); assay: Synergy of cannabidiol with cell-wall disrupting agent (CBD MIC in combination, FICI); assay type: cell-based; conditions: for CBD MIC with Cefotetan: Cefotetan at 128 μg/mL; for FICI: calculated using MIC of 256 μg/mL for cannabidiol; for MIC: Pseudomonas aeruginosa
Description: (§1) The compounds were stored short term at 4° C.
(§2) Analysis was performed using Microsoft Excel.

[2] = test system: Pseudomonas aeruginosa FADDI-PA067 (GN_177), Polymyxin resistant; assay: as above; assay type: cell-based; conditions: for MIC: Pseudomonas aeruginosa
Description: as §1, §2

C=C(C)C1CCC(C)=CC1c1c(O)cc(CCCCC)cc1O (stereo not drawn) [Cannabidiol, 2-[3-methyl-6-(1-methylethenyl)-2-cyclohexen-1-yl]-5-pentyl-1,3-benzenediol]
CBD MIC with Cefotetan [1]: >32 mg/L
CBD MIC with Cefotetan ([1]; Pseudomonas aeruginosa ATCC 27853): >256 mg/L
CBD MIC with Ceftazidime ([1]; Ceftazidime at 0.015 μg/mL as headed in Table 64, Pseudomonas aeruginosa ATCC 27853): >256 mg/L
CBD MIC with Ceftazidime ([1]; Ceftazidime at 0.031 μg/mL as headed in Table 64, Pseudomonas aeruginosa ATCC 27853): >256 mg/L
CBD MIC with Ceftazidime ([1]; Ceftazidime at 0.062 μg/mL as headed in Table 64, Pseudomonas aeruginosa ATCC 27853): >256 mg/L
CBD MIC with Ceftazidime ([1]; Ceftazidime at 0.25 μg/mL (Table 66), Pseudomonas aeruginosa ATCC 27853): >32 mg/L
CBD MIC with Ceftazidime ([1]; Ceftazidime at 0.25 μg/mL as headed in Table 64, Pseudomonas aeruginosa ATCC 27853): 0.001 mg/L
CBD MIC with Ceftazidime ([1]; Ceftazidime at 0.5 μg/mL (Table 66), Pseudomonas aeruginosa ATCC 27853): >32 mg/L
CBD MIC with Ceftazidime ([1]; Ceftazidime at 0.5 μg/mL as headed in Table 64, Pseudomonas aeruginosa ATCC 27853): 0.001 mg/L
CBD MIC with Ceftazidime ([1]; Ceftazidime at 1 μg/mL (Table 66), Pseudomonas aeruginosa ATCC 27853): >32 mg/L
CBD MIC with Ceftazidime ([1]; Ceftazidime at 2 μg/mL (Table 66), Pseudomonas aeruginosa ATCC 27853): 0.001 mg/L
CBD MIC with Ceftazidime ([1]; Ceftazidime at 4 μg/mL (Table 66), Pseudomonas aeruginosa ATCC 27853): 0.001 mg/L
CBD MIC with Ceftazidime ([1]; Ceftazidime at […] (Table 66), Pseudomonas aeruginosa ATCC 27853): >32 mg/L
CBD MIC with Colistin ([1]; Colistin at 1 μg/mL, Pseudomonas aeruginosa ATCC 27853): 0.001 mg/L
activity of cannabidiol in combination with Polymyxin B ([1]; Example 1): effective
Average FICI score ([1]; Example 1, GN_042, cannabidiol + MCC_006636 (Polymyxin B)): 0.265
Synergy ([1]; Example 1, GN_042, cannabidiol + MCC_006636 (Polymyxin B), synergy when FICI≤0.5): YES
activity of cannabidiol combined with Polymyxin B ([1]; Example 6): effective
CBD MIC with Polymyxin B at concentration 0.015625 μg/mL ([1]; Example 6, GN_042): >256 mg/L
CBD MIC with Polymyxin B at concentration 0.03125 μg/mL ([1]; Example 6, GN_042): >256 mg/L
CBD MIC with Polymyxin B at concentration 0.0625 μg/mL ([1]; Example 6, GN_042): >256 mg/L
CBD MIC with Polymyxin B at concentration 0.25 μg/mL ([1]; Example 6, GN_042): >256 mg/L
CBD MIC with Polymyxin B at concentration […] ([1]; Example 6, GN_042): >256 mg/L
CBD MIC with Polymyxin B at concentration 0.5 μg/mL ([1]; Example 6, GN_042, listed as CBD): 2 mg/L and 4 mg/L
activity of cannabidiol combined with ticarcillin ([1]; Example 13): effective
activity of cannabidiol combined with ceftazidime ([1]; Example 16): effective
activity of cannabidiol combined with aztreonam ([1]; Example 18): effective
activity of cannabidiol combined with octapeptin C4 ([1]; Example 21): effective
activity of cannabidiol in combination with MCC_8980 ([1]; Example 24): effective
FICI range ([1]; Pseudomonas aeruginosa ATCC 27853, CBD with FADDI-287, MIC table (Table 95), listed as CBD): 0.53-4 and 0.56-4
FICI range ([1]; Pseudomonas aeruginosa ATCC 27853, CBD with FADDI-287, Synergy table (Table 97)): No Synergy
FICI range ([1]; Pseudomonas aeruginosa ATCC 27853, CBD with MCC_8980, MIC table (Table 99), listed as CBD): 0.16-1.06 and 0.19-1.06
FICI range ([1]; Pseudomonas aeruginosa ATCC 27853, CBD with MCC_8980, Synergy table (Table 101), listed as CBD): 0.16-0.25 and 0.19-0.26
FICI range ([1]; Pseudomonas aeruginosa ATCC 27853, CBD with Spero Potentiator SPR741, MIC table (Table 91)): 1.01-1.25
FICI range ([1]; Pseudomonas aeruginosa ATCC 27853, CBD with Spero Potentiator SPR741, Synergy table (Table 93)): No Synergy
FICI range ([1]; Pseudomonas aeruginosa ATCC 27853, CBD with Spero SPR206, Synergy table): No Synergy
CBD MIC with FADDI-287 ([1]; Pseudomonas aeruginosa ATCC 27853, FADDI-287 at 0.5 μg/mL, listed as CBD): 16 mg/L
CBD MIC with MCC_8980 ([1]; Pseudomonas aeruginosa ATCC 27853, MCC_8980 at 8 μg/mL, listed as CBD): 16 mg/L
CBD MIC with MCC_8980 ([1]; Pseudomonas aeruginosa ATCC 27853, MCC_8980 at 16 μg/mL, listed as CBD): 2 mg/L
FICI ([1]; Pseudomonas aeruginosa ATCC 27853, cannabidiol with FADDI-287 at 0.25 μg/mL): 1.25
FICI ([1]; Pseudomonas aeruginosa ATCC 27853, cannabidiol with FADDI-287 at 0.5 μg/mL): 0.5312 and 0.5625
FICI ([1]; Pseudomonas aeruginosa ATCC 27853, cannabidiol with FADDI-287 at 1 μg/mL): 1
FICI ([1]; Pseudomonas aeruginosa ATCC 27853, cannabidiol with FADDI-287 at 2 μg/mL): 2
FICI ([1]; Pseudomonas aeruginosa ATCC 27853, cannabidiol with FADDI-287 at 4 μg/mL): 4
FICI ([1]; Pseudomonas aeruginosa ATCC 27853, cannabidiol with MCC_8980 at 0.5 μg/mL): 1.008
FICI ([1]; Pseudomonas aeruginosa ATCC 27853, cannabidiol with MCC_8980 at 1 μg/mL): 1.016
FICI ([1]; Pseudomonas aeruginosa ATCC 27853, cannabidiol with MCC_8980 at 4 μg/mL): 1.0625
FICI ([1]; Pseudomonas aeruginosa ATCC 27853, cannabidiol with MCC_8980 at 8 μg/mL): 0.1562 and 0.1875
FICI ([1]; Pseudomonas aeruginosa ATCC 27853, cannabidiol with MCC_8980 at 16 μg/mL): 0.2539 and 0.2578
FICI ([1]; Pseudomonas aeruginosa ATCC 27853, cannabidiol with SPR741 at 0.5 μg/mL): 1.008
FICI ([1]; Pseudomonas aeruginosa ATCC 27853, cannabidiol with SPR741 at 1 μg/mL): 1.016
FICI ([1]; Pseudomonas aeruginosa ATCC 27853, cannabidiol with SPR741 at 4 μg/mL): 1.0625
FICI ([1]; Pseudomonas aeruginosa ATCC 27853, cannabidiol with SPR741 at 16 μg/mL): 1.25
MIC ([1]; ATCC27853, MCC_6442 at 4 μg/mL, Pseudomonas aeruginosa ATCC 27853, read-out: CBD MIC with MCC_6442): 0.001 mg/L
MIC ([1]; ATCC27853, Octapeptin C4 at 4 μg/mL, read-out: CBD MIC with Octapeptin C4): 0.001 mg/L
MIC ([1]; ATCC27853, Pseudomonas aeruginosa ATCC 27853, FADDI-287 at 0.5 μg/mL, read-out: CBD MIC with FADDI-287): 8 mg/L
MIC ([1]; ATCC27853, Pseudomonas aeruginosa ATCC 27853, FADDI-287 at 1 μg/mL, read-out: CBD MIC with FADDI-287): 0.001 mg/L
MIC ([1]; ATCC27853, Pseudomonas aeruginosa ATCC 27853, FADDI-287 at 2 μg/mL, read-out: CBD MIC with FADDI-287): 0.001 mg/L
MIC ([1]; ATCC27853, Pseudomonas aeruginosa ATCC 27853, FADDI-287 at 4 μg/mL, read-out: CBD MIC with FADDI-287): 0.001 mg/L
MIC ([1]; ATCC27853, Pseudomonas aeruginosa ATCC 27853, MCC_8980 at 8 μg/mL, read-out: CBD MIC with MCC_8980): 8 mg/L
MIC ([1]; ATCC27853, Pseudomonas aeruginosa ATCC 27853, MCC_8980 at 16 μg/mL, read-out: CBD MIC with MCC_8980): 1 mg/L
MIC ([1]; ATCC27853, Spero SPR206 at 0.25 μg/mL, 1st of 3 experiments, read-out: CBD MIC with Spero SPR206): > 256 mg/L
MIC ([1]; ATCC27853, Spero SPR206 at 0.25 μg/mL, 3rd of 3 experiments, read-out: CBD MIC with Spero SPR206): > 256 mg/L
MIC ([1]; ATCC27853, Spero SPR206 at 0.5 μg/mL, 1st of 3 experiments, read-out: CBD MIC with Spero SPR206): > 256 mg/L
MIC ([1]; ATCC27853, Spero SPR206 at 0.5 μg/mL, 3rd of 3 experiments, read-out: CBD MIC with Spero SPR206): > 256 mg/L
MIC ([1]; ATCC27853, Spero SPR206 at 1 μg/mL, 1st of 3 experiments, read-out: CBD MIC with Spero SPR206): 0.001 mg/L
MIC ([1]; ATCC27853, Spero SPR206 at 1 μg/mL, 3rd of 3 experiments, read-out: CBD MIC with Spero SPR206): > 256 mg/L
MIC ([1]; ATCC27853, Spero SPR206 at 2 μg/mL, 1st of 3 experiments, read-out: CBD MIC with Spero SPR206): 0.001 mg/L
MIC ([1]; ATCC27853, Spero SPR206 at 2 μg/mL, 3rd of 3 experiments, read-out: CBD MIC with Spero SPR206): > 256 mg/L
MIC ([1]; ATCC27853, Spero SPR206 at 4 μg/mL, 1st of 3 experiments, read-out: CBD MIC with Spero SPR206): 0.001 mg/L
MIC ([1]; ATCC27853, Spero SPR206 at 4 μg/mL, 3rd of 3 experiments, read-out: CBD MIC with Spero SPR206): > 256 mg/L
CBD MIC with Ticarcillin ([1]; Ticarcillin at 16 μg/mL, Pseudomonas aeruginosa ATCC 27853): 0.001 mg/L
CBD MIC with Ticarcillin ([1]; Ticarcillin at 32 μg/mL, Pseudomonas aeruginosa ATCC 27853): 0.001 mg/L
CBD MIC with Ticarcillin ([1]; Ticarcillin at 64 μg/mL, Pseudomonas aeruginosa ATCC 27853): 0.001 mg/L
cannabidiol combined with Polymyxin B: synergy ([2]; Example 8): synergy
MIC ([2]; read-out: CBD MIC with MCC_00636 at concentration 0.015625 μg/mL): > 256 mg/L
MIC ([2]; read-out: CBD MIC with MCC_00636 at concentration 0.03125 μg/mL): > 256 mg/L
MIC ([2]; read-out: CBD MIC with MCC_00636 at concentration 0.0625 μg/mL): > 256 mg/L
MIC ([2]; read-out: CBD MIC with MCC_00636 at concentration 0.25 μg/mL): > 256 mg/L
MIC ([2]; read-out: CBD MIC with MCC_00636 at concentration 0.5 μg/mL): 4 mg/L
MIC ([2]; read-out: CBD MIC with MCC_00636 at concentration 1 μg/mL): 0.5 mg/L
MIC ([2]; read-out: CBD MIC with MCC_00636 at concentration 2 μg/mL): 0.000977 mg/L
MIC ([2]; read-out: CBD MIC with MCC_00636 at concentration 4 μg/mL): 0.000977 mg/L
MIC ([2]; read-out: CBD MIC with MCC_00636 at concentration […]): > 256 mg/L
